Earlier results, collected in publication PMC3203620 (The Journal of Organic Chemistry, 2011).

Columns and labels:
[1] = tested on: Plasmodium falciparum DXR
Mt = conditions: due to poor uptake

**Q.** With `O=CN(O)CCCP(=O)(O)O` [Compound 1, fosmidomycin] as the compound, how does the pharmacokinetic properties read?
**A.** The pharmacokinetic properties was “poor pharmacokinetic properties”.

**Q.** And the “inhibition of Plasmodium falciparum DXR in vitro” value [1]?
**A.** Its value is “potent inhibitor”.

**Q.** And the “activity on Mt at the whole cell level” value (Mt)?
**A.** Its value is “inactive”.

**Q.** And the “activity in vivo in P. vinckei infected mice” value (P. vinckei)?
**A.** The value was “potent inhibitor”.
